Results: patent publication US20110319484A1, “NEUROPROTECTIVE COMPOUNDS” (Parque Tecnologico de Ciencias de la Salud, priority 2009, published 2011)

How the values were obtained:
zebrafish larvae = assay: Inhibition of TBH-induced apoptosis in the brain of the zebrafish embryo (Acridine Orange); format: in vivo, zebrafish (Danio rerio); details: zebrafish larvae 96 hpf, TBH 0.45 mM, compound 1 μg/ml, 24 h
Procedure: To that end, an assay was performed on zebrafish larvae (96 hours post-fertilization). The fertilized eggs were obtained by a natural birth of adult zebrafish (AB strain) in the inventors' laboratory, carried out according to what is described in The Zebrafish Book [Westerfield, M. (1995) The Zebrafish Book. A Guide for the Laboratory Use of Zebrafish (Danio rerio). 3rd ed., University of Oregon Press, Eugene]. The eggs were collected in the 1st hour after spawning, washed and deposited in a clean Petri dish with embryo water (medium) (4.9 mM NaCl, 0.17 mM KCl, 0.33 mM CaCl.2H2O, 0.33 .mM MgSO4.7H2O, pH 7.2) prepared following the guidelines described in the book Zebrafish. Practical approach [Nusslein-Volhard, C and Dahm, R (2002) Zebrafish. Practical approach. Oxford: Oxford University Press].
The inhibition caused by the NST0003, NST0004 and NST0005 compounds on cell death caused by the tert-butyl hydroperoxide (TBH) compound, which is a pro-oxidizing compound which induces specific neurotoxicity in zebrafish larvae by means of the mechanism of apoptosis, was analyzed.
The larvae (at 96 hours post-fertilization [hpf]) were seeded in 96-well plates (3 larvae/well), performing a triplicate (3 wells) for experimental condition, thus obtaining an intra-assay triplicate. The larvae were treated in a total volume of embryo medium of 100 μl per well for the following conditions: (i) control (embryo medium); (ii), TBH [0.45 mM], which corresponds with the maximum tolerated dose (MTD), which induces neurotoxicity in the larvae but not mortality; and (iii) TBH [0.45 mM] and NST0003, NST0004 and NST0005, all at the concentration of 1 μg/ml. […]
Thus, the control larvae and the treated larvae were immersed in 1 μg/ml of AO in embryo water at 28.5° C. for 60 minutes. […] AO is a fluorescent compound which can be readily measured and quantified with a fluorometer. Therefore, the larvae were anesthetized with tricaine (3-aminobenzoic acid ethyl ester) and homogenized for their subsequent reading in a fluorescence plate reader (excitation: 488 nm; emission: 530 nm). […]

HMG-CoA reductase enzyme = biological target: T1, HMG-CoA reductase enzyme (Homo sapiens, UniProt P04035); assay: HMG-CoA reductase inhibition, spectrophotometric NADPH oxidation at 340 nm; format: biochemical; details: for IC50: four independent assays, Trimmed Spearman-Karber method; for inhibition power of HMG-CoA reductase, times less than that of atorvastatin: relative to atorvastatin
T1 construct: the oxidation of the NADPH by the catalytic subunit of the HMG-CoA reductase
T1 sequence (P04035 340-888 limits assumed): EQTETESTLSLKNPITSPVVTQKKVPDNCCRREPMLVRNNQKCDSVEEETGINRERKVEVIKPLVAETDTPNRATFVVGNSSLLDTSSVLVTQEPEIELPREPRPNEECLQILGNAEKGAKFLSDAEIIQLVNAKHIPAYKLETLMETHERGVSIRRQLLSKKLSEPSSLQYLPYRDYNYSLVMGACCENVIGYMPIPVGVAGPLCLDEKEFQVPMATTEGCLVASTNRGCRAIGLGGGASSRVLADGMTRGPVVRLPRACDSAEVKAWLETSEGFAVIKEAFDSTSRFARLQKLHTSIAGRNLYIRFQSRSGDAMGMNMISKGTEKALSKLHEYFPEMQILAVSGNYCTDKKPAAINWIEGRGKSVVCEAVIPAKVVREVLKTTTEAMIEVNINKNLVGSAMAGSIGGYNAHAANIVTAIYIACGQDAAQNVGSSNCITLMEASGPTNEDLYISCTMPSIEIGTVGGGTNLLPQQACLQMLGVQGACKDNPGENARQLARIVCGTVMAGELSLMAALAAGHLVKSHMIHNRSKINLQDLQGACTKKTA
Excerpt: To that end, the degree of inhibition of the HMG-CoA reductase enzyme by the different (1S,3R,7S,8S,8aR)-1,2,3,7,8,8a-hexahydro-3,7-dimethyl-8-[2-[(2R,4R)-tetrahydro-4-hydroxy-6-oxo-2H-pyran-2-yl]ethyl-1-naphthalenyl propanoate derivatives, optionally mono- or di-methylated at the carbon in the alpha position of propanoic acid (NST0003, NST0004 and NST0005) was studied.
During the reaction, the HMG-CoA reductase uses NADPH as a reducing agent and 3-hydroxy-3-methylglutaryl coenzyme A (HMG-CoA) as a substrate. Mevalonic acid, which serves as a substrate for the following reaction in order to continue with the cholesterol synthesis, is obtained as a reaction product. The enzymatic reaction object of study is schematically shown as follows:
This in vitro assay is based on the spectrophotometric measurement of the decrease of absorbance at 340 nm, representing the oxidation of the NADPH by the catalytic subunit of the HMG-CoA reductase in the presence of the HMG-CoA reductase substrate. The assay was carried out in a 96-well plate, with a total reaction volume of 200 μl. The reaction buffer (50 mM KH2PO4, 1 M KCl, 2 mg/ml bovine serum albumin (BSA) and 5 mM DTT, at pH=7.3) was prepared at the time of carrying out the reaction and was maintained at 37° C.
Four independent assays were carried out. […] The concentrations of the reagents involved in the reaction mixture were the following: 0.2 mM HMG-CoA, 3 μU/reaction HMG-CoA reductase and 0.2 mM NADPH. After brief agitation, the reading of the plate was taken in a spectrophotometer at the conditions of 340 nm, 37° C., detecting the decrease of absorbance at 340 nm over time. The percentage of HMG-CoA reductase enzymatic activity with respect to the control was calculated. The IC50 was calculated with the data obtained by means of the Trimmed Spearman-Karber method (Version 1.5).

| Compound | reduction of apoptosis induced by TBH (zebrafish larvae) [%] | IC50 (HMG-CoA reductase enzyme) [µM] | inhibition power of HMG-CoA reductase, times less than that of atorvastatin (HMG-CoA reductase enzyme) [times] |
| --- | --- | --- | --- |
| CCC(=O)O[C@H]1C[C@@H](C)C=C2C=C[C@H](C)[C@H](CC[C@@H]3C[C@@H](O)CC(=O)O3)[C@H]21 [NST0003, (1S,3R,7S,8S,8aR)-1,2,3,7,8,8a-hexahydro-3,7-dimethyl-8-[2-[(2R,4R)-tetrahydro-4-hydroxy-6-oxo-2H-pyran-2-yl]ethyl-1-naphthalenyl propanoate] | 50.7±17.1 | 40.6 | 170 |
| C[C@H]1C=C2C=C[C@H](C)[C@H](CC[C@@H]3C[C@@H](O)CC(=O)O3)[C@H]2[C@@H](OC(=O)C(C)(C)C)C1 [NST0005] | 34.3±17.3 | 0.865 | 4 |
| CC(C)C(=O)O[C@H]1C[C@@H](C)C=C2C=C[C@H](C)[C@H](CC[C@@H]3C[C@@H](O)CC(=O)O3)[C@H]21 [NST0004] | 45.3±18.9 | 23.2 | 100 |
